Source: patent publication US20240158446A1, “CYCLIC COMPOUND HAVING SELECTIVE INHIBITORY ACTION ON KRAS OVER HRAS AND NRAS” (CHUGAI SEIYAKU KABUSHIKI KAISHA, priority 2021, published 2024)
pKd: −log10 of the molar value. Where two headings read alike, the source gives them in different places. *1 amine or outer side, *2 acyl side, *3 side chain or, on linkers, in order; H or OH if unused. Where a SMILES comes first, the peptide text is derived from it. Bridges are numbered along the chain shown (N, C = ends). [ ]: non-standard residue; d: D form. The star is where a group is joined. hPhe(3-Cl-4-CF3) = N[C@@H](CCc1ccc(C(F)(F)F)c(Cl)c1)C(=O)O; NPrPhe(4-CF3) = CCCN[C@@H](Cc1ccc(C(F)(F)F)cc1)C(=O)O; X42 = Cc1ccc(C[C@@H](C(=O)[*:2])N(CC2CCC2)[*:1])cc1; NMeGly(cPent) = CN[C@H](C(=O)O)C1CCCC1; Pro(4,4-Me2) = CC1(C)CN[C@H](C(=O)O)C1; NMeD = CN[C@@H](CC(=O)O)C(=O)O; NMeL = CN[C@@H](CC(C)C)C(=O)O; X12 = N#CCN(CC(=O)[*:2])[*:1]; NMeNva = CCC[C@H](NC)C(=O)O; Morpholide = C1CN(*)CCO1; Ac5c = NC1(C(=O)O)CCCC1; Aze = O=C(O)[C@@H]1CCN1; Sar = CNCC(=O)O

What was measured:
[1] = biological target: GDP-bound KRAS wild-type protein (Homo sapiens, UniProt P01116); assay: Binding to KRAS by surface plasmon resonance (SPR), Single Cycle Kinetics; settings: GDP-bound KRAS wild-type protein, read-out: KRAS KD
[2] = biological target: GDP-bound NRAS wild-type protein (Homo sapiens, UniProt P01111); assay: Binding to NRAS by surface plasmon resonance (SPR), Single Cycle Kinetics; settings: for NRAS/KRAS (ratio of KD value for NRAS to KD value for KRAS) / NRAS/KRAS (ratio of KD value with respect to NRAS to KD value with respect to KRAS): SPR, GDP-bound NRAS wild-type protein vs GDP-bound KRAS wild-type protein; for NRAS/KRAS (ratio of KD value with respect to GDP-bound NRAS wild-type protein to KD value with respect to KRAS): SPR KD ratio NRAS/KRAS, class symbols
[3] = biological target: GDP-bound HRAS wild-type protein (Homo sapiens, UniProt P01112); assay: Binding to HRAS by surface plasmon resonance (SPR), Single Cycle Kinetics; settings: for HRAS/KRAS (ratio of KD value for HRAS to KD value for KRAS) / HRAS/KRAS (ratio of KD value with respect to HRAS to KD value with respect to KRAS): SPR, GDP-bound HRAS wild-type protein vs GDP-bound KRAS wild-type protein; for HRAS/KRAS (ratio of KD value with respect to GDP-bound HRAS wild-type protein to KD value with respect to KRAS): SPR KD ratio HRAS/KRAS, class symbols
[4] = SPR Single Cycle Kinetics, 1:1 binding model

Chain of GDP-bound KRAS wild-type protein (P01116 whole entry): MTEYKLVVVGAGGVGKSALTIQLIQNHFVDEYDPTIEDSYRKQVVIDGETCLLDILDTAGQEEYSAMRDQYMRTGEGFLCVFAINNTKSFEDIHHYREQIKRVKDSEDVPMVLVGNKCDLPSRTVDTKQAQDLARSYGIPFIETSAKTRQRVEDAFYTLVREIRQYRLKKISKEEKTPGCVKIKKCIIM
Chain of GDP-bound HRAS wild-type protein (P01112 whole entry): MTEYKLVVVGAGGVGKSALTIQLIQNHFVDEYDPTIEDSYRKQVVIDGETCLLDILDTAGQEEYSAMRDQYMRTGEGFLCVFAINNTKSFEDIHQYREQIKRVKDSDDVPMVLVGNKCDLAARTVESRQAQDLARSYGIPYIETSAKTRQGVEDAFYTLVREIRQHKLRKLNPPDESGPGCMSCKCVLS
Chain of GDP-bound NRAS wild-type protein (P01111 whole entry): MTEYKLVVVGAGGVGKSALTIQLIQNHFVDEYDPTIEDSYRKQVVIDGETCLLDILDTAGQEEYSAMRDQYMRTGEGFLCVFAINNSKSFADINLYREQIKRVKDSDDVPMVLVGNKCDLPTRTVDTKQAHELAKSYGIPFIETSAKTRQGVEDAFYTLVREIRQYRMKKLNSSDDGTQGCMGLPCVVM

SMILES	pKd [1, 4]	NRAS/KRAS (ratio of KD value for NRAS to KD value for KRAS) [2]	HRAS/KRAS (ratio of KD value for HRAS to KD value for KRAS) [3]	pKd ([1]; SPR, Single Cycle Kinetics)	further results
CC[C@H](C)[C@@H]1NC(=O)[C@H](CC(C)C)N(C)C(=O)C[C@@H](C(=O)N2CCOCC2)N(C)C(=O)[C@H](C2CCCC2)N(C)C(=O)C2(CCCC2)NC(=O)[C@@H]2CCCN2C(=O)[C@H](CCc2ccc(C(F)(F)F)c(Cl)c2)NC(=O)CN(C)C(=O)[C@H](Cc2ccc(C)cc2)N(CC2CCC2)C(=O)CN(C)C(=O)CN(C)C1=O [PP0095] ([NMeL]I[Sar][Sar][X42][Sar][hPhe(3-Cl-4-CF3)]P[Ac5c][NMeGly(cPent)][NMeD]-Morpholide; lactam N-11)	9.10	C (A compound having a KD ratio of 0.1 or more and less than 3 is denoted as C)	C (A compound having a KD ratio of 0.1 or more and less than 3 is denoted as C)	–	–
CCO[C@@H]1C[C@H]2C(=O)NC3(CCC3)C(=O)N(C)[C@@H](C3CCCC3)C(=O)N(CC)[C@H](C(=O)N3CCOCC3)CC(=O)N(C)[C@@H](COC)C(=O)N[C@@H]([C@@H](C)CC)C(=O)N(C)CC(=O)N(C)[C@H]3CCCCCN(C3=O)[C@@H](Cc3ccc(C(F)(F)F)cc3)C(=O)N(C)CC(=O)N[C@@H](CCc3cc(F)c(C(F)(F)F)c(F)c3)C(=O)N2C1 [PP0946]	–	A (a compound having 10 or more and less than 20 is denoted as A)	B (a compound having 3 or more and less than 10 is denoted as B)	8.66	–
CCCCO[C@@H]1C[C@H]2C(=O)NC3(CCC3)C(=O)N(C)[C@@H](C3CCCC3)C(=O)N(C)[C@H](C(=O)N3CCOCC3)CC(=O)N(C)[C@@H](CC(C)C)C(=O)N[C@@H]([C@@H](C)CC)C(=O)N(C)CC(=O)N(C)[C@H]3CCCCCN(C3=O)[C@@H](Cc3ccc(C(F)(F)F)cc3)C(=O)N(C)CC(=O)N[C@@H](CCc3cc(F)c(C(F)(F)F)c(F)c3)C(=O)N2C1 [PP1004]	–	B (a compound having 3 or more and less than 10 is denoted as B)	B (a compound having 3 or more and less than 10 is denoted as B)	8.43	–
C#CC[C@H]1C(=O)N[C@@H]([C@@H](C)CC)C(=O)N(C)CC(=O)N(C)[C@H]2C/C=C\CCN(C2=O)[C@@H](Cc2ccc(C)cc2)C(=O)N(C)CC(=O)N[C@@H](CCc2ccc(C(F)(F)F)c(Cl)c2)C(=O)N2CC3(CC3)C[C@H]2C(=O)NC2(CC(C)(C)C2)C(=O)N(C)[C@@H](C2CCCC2)C(=O)N(C)[C@H](C(=O)N(C)C)CC(=O)N1C [PP2982]	–	A (a compound having 10 or more and less than 20 is denoted as A)	A (a compound having 10 or more and less than 20 is denoted as A)	9.80	–
CCC[C@H]1C(=O)N[C@@H]([C@@H](C)CC)C(=O)N(C)CC(=O)N(C)[C@H]2C/C=C\CCN(C2=O)[C@@H](Cc2ccc(C(F)(F)F)cc2)C(=O)N(C)CC(=O)N[C@@H](CCc2ccc(Cl)c(OC)c2)C(=O)N2C[C@H](OCC)C[C@H]2C(=O)NC2(CC(C)(C)C2)C(=O)N(C)[C@@H](C(CC)CC)C(=O)N(C)[C@H](C(=O)N(C)C)CC(=O)N1C [PP2789]	9.00	–	–	–	NRAS/KRAS (ratio of KD value with respect to GDP-bound NRAS wild-type protein to KD value with respect to KRAS) [2]: AA (a compound having 20 or more is denoted as AA); HRAS/KRAS (ratio of KD value with respect to GDP-bound HRAS wild-type protein to KD value with respect to KRAS) [3]: A (a compound having 10 or more and less than 20 is denoted as A)
CCCN1C(=O)[C@@H]2CCN2C(=O)CN(CC#N)C(=O)[C@H]([C@@H](C)CC)NC(=O)[C@H](CC(C)C)N(C)C(=O)C[C@@H](C(=O)N2CCOCC2)N(C)C(=O)[C@H](C2CCCC2)N(C)C(=O)C2(CCCC2)NC(=O)[C@@H]2CCCN2C(=O)[C@H](CCc2ccc(C(F)(F)F)c(Cl)c2)NC(=O)CN(C)C(=O)[C@@H]1Cc1ccc(C(F)(F)F)cc1 [PP0275] ([NMeL]I[X12][Aze][NPrPhe(4-CF3)][Sar][hPhe(3-Cl-4-CF3)]P[Ac5c][NMeGly(cPent)][NMeD]-Morpholide; lactam N-11)	9.52	C (A compound having a KD ratio of 0.1 or more and less than 3 is denoted as C)	C (A compound having a KD ratio of 0.1 or more and less than 3 is denoted as C)	–	–
CCO[C@@H]1C[C@H]2C(=O)NC3(CCCC3)C(=O)N(C)[C@@H](C3CCCC3)C(=O)N(C)[C@H](C(=O)N3CCOCC3)CC(=O)N(C)[C@@H](CC)C(=O)N[C@@H]([C@@H](C)CC)C(=O)N(C)CC(=O)N(C)[C@H]3C[C@H](C)C(C)CN(C3=O)[C@@H](Cc3ccc(C(F)(F)F)cc3)C(=O)N(C)CC(=O)N[C@@H](CCc3cc(F)c(C(F)(F)F)c(F)c3)C(=O)N2C1 (stereo partly drawn) [PP1348]	–	–	–	–	pKd ([1]; SPR, Single Cycle Kinetics, 1:1 binding model): 10.12; NRAS/KRAS (ratio of KD value for NRAS to KD value for KRAS) ([2]; KD ratio class): B (a compound having 3 or more and less than 10 is denoted as B); HRAS/KRAS (ratio of KD value for HRAS to KD value for KRAS) ([3]; KD ratio class): B (a compound having 3 or more and less than 10 is denoted as B)
C#CC[C@H]1C(=O)N[C@@H]([C@@H](C)CC)C(=O)N(C)CC(=O)N(C)[C@H]2C/C=C\CCN(C2=O)[C@@H](Cc2ccc(C(F)(F)F)cc2)C(=O)N(C)CC(=O)N[C@@H](CCc2ccc(C(F)(F)F)c(OC)c2)C(=O)N2C[C@@H](C)C[C@H]2C(=O)NC2(CCC2)C(=O)N(C)[C@@H](C2CCCC2)C(=O)N(C)[C@H](C(=O)N(C)CC)CC(=O)N1C [PP2061]	–	AA (a compound having 20 or more is denoted as AA)	A (a compound having 10 or more and less than 20 is denoted as A)	10.12	–
CCCN1C(=O)CN(C)C(=O)CN(C)C(=O)[C@H]([C@@H](C)CC)NC(=O)[C@H](CC(C)C)N(C)C(=O)C[C@@H](C(=O)N2CCOCC2)N(C)C(=O)[C@H](C2CCCC2)N(C)C(=O)C2(CCCC2)NC(=O)[C@@H]2CC(C)(C)CN2C(=O)[C@H](CCc2ccc(C(F)(F)F)c(Cl)c2)NC(=O)CN(C)C(=O)[C@@H]1Cc1ccc(C(F)(F)F)cc1 [PP0446] ([NMeL]I[Sar][Sar][NPrPhe(4-CF3)][Sar][hPhe(3-Cl-4-CF3)][Pro(4,4-Me2)][Ac5c][NMeGly(cPent)][NMeD]-Morpholide; lactam N-11)	10.00	–	–	–	NRAS/KRAS (ratio of KD value with respect to NRAS to KD value with respect to KRAS) [2]: B (a compound having 3 or more and less than 10 is denoted as B); HRAS/KRAS (ratio of KD value with respect to HRAS to KD value with respect to KRAS) [3]: C (A compound having a KD ratio of 0.1 or more and less than 3 is denoted as C)
CC[C@H](C)[C@@H]1NC(=O)[C@H](CC(C)C)N(C)C(=O)C[C@@H](C(=O)N2CCOCC2)N(CC)C(=O)[C@H](C2CCCC2)N(C)C(=O)C2(CCCC2)NC(=O)[C@@H]2CCCN2C(=O)[C@H](CCc2ccc(C(F)(F)F)c(Cl)c2)NC(=O)CN(C)C(=O)[C@H](Cc2ccc(F)cc2)N2CCCCC[C@@H](C2=O)N(C)C(=O)CN(C)C1=O [PP0970]	–	B (a compound having 3 or more and less than 10 is denoted as B)	B (a compound having 3 or more and less than 10 is denoted as B)	8.66	–
CCO[C@@H]1C[C@H]2C(=O)NC3(CC(C)(C)C3)C(=O)N(C)[C@@H](CC3CCC3)C(=O)N(C)[C@H](C(=O)N(C)C)CC(=O)N(C)[C@@H](COC)C(=O)N[C@@H]([C@@H](C)CC)C(=O)N(C3CC3)CC(=O)N(C)[C@H]3C/C=C\CCN(C3=O)[C@@H](Cc3ccc(C(F)(F)F)cc3)C(=O)N(C)CC(=O)N[C@@H](CCc3ccc(C(F)(F)F)c(OC)c3)C(=O)N2C1 [PP2771]	8.66	–	–	–	NRAS/KRAS (ratio of KD value with respect to GDP-bound NRAS wild-type protein to KD value with respect to KRAS) [2]: AA (a compound having 20 or more is denoted as AA); HRAS/KRAS (ratio of KD value with respect to GDP-bound HRAS wild-type protein to KD value with respect to KRAS) [3]: A (a compound having 10 or more and less than 20 is denoted as A)
CCC[C@H]1C(=O)N[C@@H]([C@@H](C)CC)C(=O)N(C)CC(=O)N(C)CC(=O)N(CCC)[C@@H](Cc2ccc(C(F)(F)F)cc2)C(=O)N(C)CC(=O)N[C@@H](CCc2ccc(C(F)(F)F)c(Cl)c2)C(=O)N2CCC[C@H]2C(=O)NC2(CCCC2)C(=O)N(C)[C@@H](C2CCCC2)C(=O)N(C)[C@H](C(=O)N2CCOCC2)CC(=O)N1C [PP0189] ([NMeNva]I[Sar][Sar][NPrPhe(4-CF3)][Sar][hPhe(3-Cl-4-CF3)]P[Ac5c][NMeGly(cPent)][NMeD]-Morpholide; lactam N-11)	9.66	B (a compound having 3 or more and less than 10 is denoted as B)	C (A compound having a KD ratio of 0.1 or more and less than 3 is denoted as C)	–	–
CCO[C@@H]1C[C@H]2C(=O)NC3(CC(C)(C)C3)C(=O)N(C)[C@@H](C(CC)CC)C(=O)N(C)[C@H](C(=O)N(C)C)CC(=O)N(C)[C@H]3CCCC/C=C/c4ccc(cc4)C[C@@H](C(=O)N(C)CC(=O)N[C@@H](CCc4ccc(Cl)c(Cl)c4)C(=O)N2C1)N1CC/C=C\C[C@@H](C1=O)N(C)C(=O)CN(C)C(=O)[C@H]([C@@H](C)CC)NC3=O [PP3045]	–	AA (a compound having 20 or more is denoted as AA)	A (a compound having 10 or more and less than 20 is denoted as A)	9.89	–
CCO[C@@H]1C[C@H]2C(=O)NC3(CCC3)C(=O)N(C)[C@@H](C3CCCC3)C(=O)N(CCC3CCC3)[C@H](C(=O)N(C)C)CC(=O)N(C)[C@@H](CC)C(=O)N[C@@H]([C@@H](C)CC)C(=O)N(C)CC(=O)N(C)[C@H]3CCCCCN(C3=O)[C@@H](Cc3ccc(C(F)(F)F)cc3)C(=O)N(C)CC(=O)N[C@@H](CCc3cc(F)c(C(F)(F)F)c(F)c3)C(=O)N2C1 [PP0635]	8.57	–	–	–	NRAS/KRAS (ratio of KD value with respect to NRAS to KD value with respect to KRAS) [2]: B (a compound having 3 or more and less than 10 is denoted as B); HRAS/KRAS (ratio of KD value with respect to HRAS to KD value with respect to KRAS) [3]: B (a compound having 3 or more and less than 10 is denoted as B)
